Legend:
HuapoAI transgenic mice = experiment: Evaluation of triglyceride and cholesterol level in HuapoAI transgenic mice; type: in vivo; settings: human apoAI transgenic mice; for change in vivo at 30 mg/kg / inhibition in vivo at 30 mg/kg: Mus musculus, 168 h, 30 mg/kg oral gavage daily for 7 days; for change in vivo at 30 mg/kg: FPLC area under the curve, over mice receiving vehicle, read-out: % HDLc Increase; for inhibition in vivo at 30 mg/kg: serum 3 h after dosing, read-out: Reduction in Triglyceride Serum Level
Protocol: After an acclimation period of 2 weeks, animals were individually identified by ear notches, weighed, and assigned to groups based on body weight. Beginning the following morning, mice were dosed daily by oral gavage for 7 days using a 20 gauge, 1½″ curved disposable feeding needle (Popper & Sons). […] Prior to termination on day 7, mice were weighed and dosed. Three hours after dosing, animals were anesthetized by inhalation of isoflurane (2-4%; Abbott Laboratories, Chicago, Ill.) and blood obtained via cardiac puncture (0.7-1.0 ml). Whole blood was transferred to serum separator tubes (Vacutainer SST), chilled on ice, and permitted to clot. Serum was obtained after centrifugation at 4° C. and frozen until analysis for triglycerides, total cholesterol, compound levels, and serum lipoprotein profile by fast protein liquid chromatography (FPLC) coupled to an inline detection system. After sacrifice by cervical dislocation, the liver, heart and epididymal fat pads were excised and weighed.
The absorbance of the dye produced is linearly related to the analyte in the sample. The assays were further modified in our laboratory for use in a 96 well format. […] An additional aliquot of sample, pipetted to a third well and diluted in 200 μl water, provided a blank for each specimen. […] Sample absorbances were compared to a standard curve (100-800, 10-500, and 100-400 mg/dl for glucose, triglycerides and total cholesterol, respectively). […] All samples from an experiment were assayed at the same time to minimize inter-assay variability.
Serum lipoproteins were separated and cholesterol quantitated with an in-line detection system. Sample was applied to a Superose® 6 HR 10/30 size exclusion column (Amersham Pharmacia Biotech) and eluted with phosphate buffered saline-EDTA at 0.5 ml/min. […] The change in voltage corresponding to change in cholesterol concentration was plotted vs time and the area under the curve corresponding to the elution of VLDL, LDL and HDL was calculated using Perkin Elmer Turbochrome software.

db/db mice = experiment: Evaluation of glucose levels in db/db mice; type: in vivo; settings: Mus musculus, 168 h, 30 mg/kg oral gavage daily for 7 days, 100% = glucose not different from lean values, read-out: Glucose Normalisation
Protocol: Five week old male diabetic (db/db) mice [C57BlKs/j-m+/+ Lepr(db), Jackson Laboratory, Bar Harbor, Me.] or lean littermates (db+) were housed 6 per cage (10″×20″×8″ with aspen chip bedding) with food (Purina 5015) and water available at all times. After an acclimation period of 2 weeks, animals were individually identified by ear notches, weighed, and bled via the tail vein for determination of initial glucose levels. Blood was collected (100 μl) from unfasted animals by wrapping each mouse in a towel, cutting the tip of the tail with a scalpel, and milking blood from the tail into a heparinized capillary tube (Fisher) balanced on the edge of the bench. Sample was discharged into a heparinized microtainer with gel separator (VWR) and retained on ice. Plasma was obtained after centrifugation at 4° C. and glucose measured immediately. Remaining plasma was frozen until the completion of the experiment, when glucose and triglycerides were assayed in all samples. Animals were grouped based on initial glucose levels and body weights. Beginning the following morning, mice were dosed daily by oral gavage for 7 days using a 20 gauge, 1½″ curved disposable feeding needle. Treatments were test compounds (30 mg/kg), a positive control agent (30 mg/kg) or vehicle [1% carboxymethylcellulose (w/v)/0.25% Tween80 (w/v); 0.3 ml/mouse]. On day 7, mice were weighed and bled (tail vein) 3 hours after dosing. Twenty-four hours after the 7th dose (i.e., day 8), animals were bled again (tail vein). Samples obtained from conscious animals on days 0, 7 and 8 were assayed for glucose. After the 24 hour bleed, animals were weighed and dosed for the final time. Three hours after dosing on day 8, animals were anesthetized by inhalation of isoflurane and blood obtained via cardiac puncture (0.5-0.7 ml). Whole blood was transferred to serum separator tubes, chilled on ice and permitted to clot. Serum was obtained after centrifugation at 4° C. and frozen until analysis for compound levels. After sacrifice by cervical dislocation, the liver, heart and epididymal fat pads were excised and weighed.
The animals dosed with vehicle had average triglycerides values of 170-230 mg/dl, which were reduced by the positive PPARγ control (70-120 mg/dl with a mean reduction of 50%). Male db/db mice were hyperglycemic (average glucose of 680-730 mg/dl on the 7th day of treatment), while lean animals had average glucose levels between 190-230 mg/dl.
Glucose was measured […] using commercially purchased reagents (Sigma #315-500). According to the manufacturers, the procedures were modified from published work (McGowan, M. W., Artiss, J. D., Strandbergh, D. R. & Zak, B. Clin Chem, 20:470-5 (1974) and Keston, A. Specific colorimetric enzymatic analytical reagents for glucose. Abstract of papers 129th Meeting ACS, 31C (1956).); and depend on the release of a mole of hydrogen peroxide for each mole of analyte, coupled with a color reaction first described by Trinder (Trinder, P. Determination of glucose in blood using glucose oxidase with an alternative oxygen acceptor. Ann Clin Biochem, 6:24 (1969)). The absorbance of the dye produced is linearly related to the analyte in the sample. The assays were further modified in our laboratory for use in a 96 well format. Standards (Sigma #339-11, Sigma #16-11, and Sigma #CC0534 for glucose, triglycerides and total cholesterol, respectively), quality control plasma (Sigma # A2034), and samples (2 or 5 μl/well) were measured in duplicate using 200 μl of reagent. An additional aliquot of sample, pipetted to a third well and diluted in 200 μl water, provided a blank for each specimen. Plates were incubated at room temperature (18, 15, and 10 minutes for glucose, triglycerides and total cholesterol, respectively) on a plate shaker (DPC Micormix 5) and absorbance read at 500 nm (glucose and total cholesterol) or 540 nm (triglycerides) on a plate reader (Wallac Victor 1420). […]

huPPARα = experiment: Cotransfection assay in CV-1 cells, huPPARα; type: cell-based, human; settings: GAL4 chimeric system, relative to PPARα agonist reference molecule
Protocol: DNA-dependent binding (ABCD binding) was carried out using SPA technology with PPAR receptors. Tritium-labeled PPARα and PPARγ agonists were used as radioligands for generating displacement curves and IC50 values with compounds of the invention. Cotransfection assays were carried out in CV-1 cells. The reporter plasmid contained an acylCoA oxidase (AOX) PPRE and TK promoter upstream of the luciferase reporter cDNA. Appropriate PPARs and RXRα were constitutively expressed using plasmids containing the CMV promoter. […] In order to eliminate such interference, a GAL4 chimeric system was used in which the DNA binding domain of the transfected PPAR was replaced by that of GAL4, and the GAL4 response element was utilized in place of the AOX PPRE. Cotransfection efficacy was determined relative to PPARα agonist and PPARγ agonist reference molecules. Efficacies were determined by computer fit to a concentration-response curve, or in some cases at a single high concentration of agonist (10 μM). For binding or cotransfection studies with receptors other than PPARs, similar assays were carried out using appropriate ligands, receptors, reporter constructs, etc., for that particular receptor.
These studies were carried out to evaluate the ability of compounds of the invention to bind to and/or activate various nuclear transcription factors, particularly huPPARα (“hu” indicates “human”) and huPPARγ. These studies provide in vitro data concerning efficacy and selectivity of compounds of the invention. Furthermore, binding and cotransfection data for compounds of the invention were compared with corresponding data for marketed compounds that act on either huPPARα or huPPARγ.

[1] = 100 mg/kg oral daily 7 days, vs vehicle

| SMILES | change in vivo at 30 mg/kg (HuapoAI transgenic mice) | inhibition in vivo at 30 mg/kg (HuapoAI transgenic mice) | inhibition in vivo at 30 mg/kg (db/db mice) | other results |
| --- | --- | --- | --- | --- |
| Cc1oc(-c2ccccc2)nc1CCOc1ccc(CC(C)(Oc2ccccc2)C(=O)O)cc1 (racemic) [Example 1, rac-3-{4-[2-(2-Phenyl-5-methyl-oxazol-4-yl)-ethoxy]-phenyl}-2-methyl-2-phenoxy-propionic acid] | 83% | 41.3% | 95% | – |
| Cc1oc(-c2cccs2)nc1CCOc1ccc(CC(C)(Oc2ccccc2)C(=O)O)cc1 (racemic) [Example 4, rac-2-Methyl-3-{4-[2-(5-methyl-2-thiophen-2-yl-oxazol-4-yl)-ethoxy]-phenyl}-2-phenoxypropionic acid] | 24% | 58.3% | 74% | – |
| Cc1oc(-c2ccccc2)nc1CCOc1ccc(C[C@@](C)(Oc2ccccc2)C(=O)O)cc1 [Example 2, (R)-3-{4-[2-(2-Phenyl-5-methyl-oxazol-4-yl)-ethoxy]-phenyl}-2-methyl-2-phenoxy-propionic acid] | 25% | -12.9% | 9% | – |
| Cc1oc(-c2ccccc2)nc1CCOc1ccc(C[C@](C)(Oc2ccccc2)C(=O)O)cc1 [Example 3, (S)-3-{4-[2-(2-Phenyl-5-methyl-oxazol-4-yl)-ethoxy]-phenyl}-2-methyl-2-phenoxy-propionic acid] | 67% | – | 85% | – |
| Cc1oc(-c2cccs2)nc1CCOc1ccc(C[C@@](C)(Oc2ccccc2)C(=O)O)cc1 [Example 5, (R)-2-Methyl-3-{4-[2-(5-methyl-2-thiophen-2-yl-oxazol-4-yl)-ethoxy]-phenyl}-2-phenoxypropionic acid] | 30% | 19.7% | 80% | – |
| Cc1oc(-c2cccs2)nc1CCOc1ccc(C[C@](C)(Oc2ccccc2)C(=O)O)cc1 [Example 6, (S)-2-Methyl-3-{4-[2-(5-methyl-2-thiophen-2-yl-oxazol-4-yl)-ethoxy]-phenyl}-2-phenoxypropionic acid] | 85% | 38.5% | 86% | – |
| Cc1oc(C2CCCCC2)nc1CCOc1ccc(CC(C)(Oc2ccccc2)C(=O)O)cc1 (stereo not drawn) [Example 7, 2-Methyl-3-(4-{2-[5-methyl-2-cyclohexyl-oxazol-4-yl]-ethoxy}-phenyl)-2-phenoxypropionic acid] | 39% | 42.1% | 86% | – |
| Cc1c(C)c2c(c(C)c1O)CCC(C)(COc1ccc(CC3SC(=O)NC3=O)cc1)O2 (stereo not drawn) [Troglitazone, reference compound] | – | – | – | huPPARα CTF Efficacy (huPPARα): 0% |
| CC(C)OC(=O)C(C)(C)Oc1ccc(C(=O)c2ccc(Cl)cc2)cc1 [fenofibrate, reference compound] | – | – | – | HDLc peak area (HuapoAI transgenic mice; 100 mg/kg oral daily 7 days, FPLC of pooled sera, vehicle 47-62 v-sec): 68-96 v-sec; mean percent increase of HDLc (HuapoAI transgenic mice; 100 mg/kg oral daily 7 days, FPLC, vs vehicle): 48%; mean elevation of total serum cholesterol (HuapoAI transgenic mice; [1]): 41%; mean reduction of triglycerides (HuapoAI transgenic mice; [1]): 37%; average triglycerides values (HuapoAI transgenic mice; 100 mg/kg oral daily 7 days, vehicle 60-80 mg/dl): 33 to 58 mg/dL; average total serum cholesterol values (HuapoAI transgenic mice; 100 mg/kg oral daily 7 days, vehicle 140-180 mg/dl): 190 to 280 mg/dL |

From US7345070B2, “Peroxisome proliferator activated receptor agonists” (Eli Lilly and Company, priority 2000, dated 2008)
